# Measured values taken from US20090197914A1, “Piperidine Derivatives, Their Process for Preparation, Their Use as Therapeutic Agents and Pharmaceutical Compositions Containing Them” (priority 2006, published 2009).
# Assays:
# [1] = target: T1, human recombinant CCR3 receptors (Homo sapiens, UniProt P51677); test: Compound affinity at human recombinant CCR3 receptors by radioligand competition, CHO-K1 cell membranes; assay type: binding; details: mean pKi by Cheng-Prussof correction of pIC50, minimum of 2 separate experiments, 2 nM [3H] ligand, 2 h at 37° C.
# T1 construct: expressed in transfected cells; membranes
# T1 sequence (P51677 1-355): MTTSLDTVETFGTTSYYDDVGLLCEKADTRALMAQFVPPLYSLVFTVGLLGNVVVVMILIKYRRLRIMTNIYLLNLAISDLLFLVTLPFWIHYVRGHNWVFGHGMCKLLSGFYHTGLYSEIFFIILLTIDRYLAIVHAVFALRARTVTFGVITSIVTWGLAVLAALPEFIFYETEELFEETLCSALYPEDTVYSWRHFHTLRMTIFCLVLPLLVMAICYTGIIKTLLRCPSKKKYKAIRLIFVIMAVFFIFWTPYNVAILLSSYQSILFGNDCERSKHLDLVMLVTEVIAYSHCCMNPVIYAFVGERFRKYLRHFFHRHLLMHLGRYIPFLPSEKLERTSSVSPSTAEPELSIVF
# Description: Determination of Compound Affinity at Human Recombinant CCR3 Receptors Assessed By Competition of [^3H]-4-(2,4-dichloro-3-methylphenoxy)-1′-[4-(methylsulfonyl)benzoyl]-1,4′-bipiperidine for CHO-K1 Cell Membranes In Vitro
# Membranes, prepared from CHO-K1 cells stably expressing recombinant human CCR3, suspended in assay buffer (50 mM Tris-Base, pH 7.4; containing sodium chloride (100 mM) and magnesium chloride (2 mM)) were incubated in the presence of 2 nM [^3H]-4-(2,4-dichloro-3-methylphenoxy)-1′-[4-(methylsulfonyl)benzoyl]-1,4′-bipiperidine, along with vehicle (1% (v/v) DMSO), 4-(4-chloro-3-methylphenoxy)-1′-[2-(methylsulfonyl)benzoyl]-1,4′-bipiperidine (to define non-specific binding) or test compound for 2 h at 37° C. in round bottomed 96-well plates. […] Four washes (250 μL) with wash buffer (50 mM Tris-Base, pH 7.4 containing sodium chloride (500 mM) and magnesium chloride (2 mM)) were performed at 4° C. to remove unbound radioactivity. […] The plates were sealed (TopSeal A) and filter-bound radioactivity was measured with a scintillation counter (TopCount, Packard BioScience) using a 1 minute counting protocol.
# Specific binding was determined from values of the control wells minus the values for the NSB wells for each assay plate. […] Data were presented as mean pKi values (calculated by applying a Cheng-Prussof correction to pIC50 values) from a minimum of 2 separate experiments.
# [2] = Intrinsic clearance with human liver microsomes; assay type: in vitro ADME; details: human liver microsomes 1 mg protein/ml, NADPH, pH 7.4
# Description: Determination of Intrinsic Clearance with Human Liver Microsomes
# Frozen human liver microsomes (BD Gentest, Oxford) were defrosted and were then diluted with 0.1 M pH 7.4 phosphate buffer at 4° C. to 1 mg protein/ml. 0.45 mL aliquots of the microsome suspension were dispensed into flat-bottomed vials (1 per compound) and were allowed to come to room temperature (5 min). During the warming time, 5 μL of solution of each test compound (typically 100 μM in DMSO) was dispensed into separate vials resulting in a final DMSO concentration of 1%. 50 μL of a 10 mM solution of NADPH in phosphate buffer (0.1 M pH 7.4, 37° C.) was added to each vial to initiate metabolism.
# 50 μL Aliquots of the mixtures were removed at measured intervals and were immediately quenched by addition to 100 μL of methanol cooled in ice. The quenched samples were kept cold (at −20° C. or less) for at least 1 h and were then centrifuged to remove protein.
# The supernatant solution was analysed using quantitative LCMS for the presence of test compound. From the concentrations of test compound at different time points a T1/2 may be calculated which may be converted to an intrinsic clearance using the equation: CLint=ln 2/T1/2.
smiles,measurement,setting,value
"Cc1c(CN2CCC(NC(=O)COc3nc(N)c(C(=O)O)cc3F)CC2)ccc(Cl)c1Cl [Example 4, 2-Amino-6-{[1-(3,4-dichloro-2-methyl-benzyl)-piperidin-4-ylcarbamoyl]-methoxy}-5-fluoro-nicotinic acid]",Ki,[1],3.16 nM
same,CLint scaled at 1 µM,[2],< 3 mL/min/kg
